Legend:
Aiolos = target: T1, Aiolos (Homo sapiens, UniProt Q96SW2+Q9UKT9); test: Aiolos degradation in human PBMCs, flow cytometry (IMiD activity); format: cell-based; details: 24 hours; for DC50: Aiolos degradation; for Dmax: read-out: Dmax (maximum percent Aiolos degradation)
T1 construct: endogenous in cells; host or cells: human PBMCs (CD20+CD3- B cells, CD3+CD20- T cells)
Description: Frozen human peripheral blood mononuclear cells (PBMCs) were thawed and treated with DMSO or compound for 24 hours and then fixed and permeabilized using a Foxp3/Transcription Factor Fixation/Permeabilization Kit (eBioscience, 00-5523). Cells were stained with fluorophore-conjugated antibodies against CD20 (Biolegend 302330), CD3 (BD Pharmingen 552127), and Aiolos (Biolegend 371106). An additional set of DMSO-treated PBMCs was stained for CD20, CD3, and an AlexaFluor 647-conjugated mouse IgG1 isotype control antibody (Biolegend 400136). Stained cells were run on an Attune NxT Acoustic Focusing Flow Cytometer (Thermo-Fisher A29004), and data was analyzed using FlowJo (v10.5.3) and GraphPad Prism (v7.00) software. Single lymphocytes were gated for B cells (CD20+CD3−) and T cells (CD3+CD20−), and the geometric mean fluorescence intensity (MFI) of Aiolos was calculated for each population. The MFI of the isotype control was calculated for each population and used to quantify background staining. Percent Aiolos degradation was calculated for each compound-treated sample using the following equation: […]
DC50 is the compound concentration degrading […] of Aiolos. Dmax is the maximum percent Aiolos degradation in the assay.

arthritis = test: Arthritis model, clinical arthritis score and body weight; format: in vivo, mice; details: daily oral treatment at 30 mg/kg, compared to dexamethasone and vehicle
Description: Significance of clinical arthritis score (A) was determined from the area under the curve (AUC) of mean paw scores calculated for individual mice. (C) Serum levels of anti-type II collagen IgG. Statistical significance was determined between vehicle control and treated groups with one-way Kruskal-Wallis ANOVA and Dunn's multiple comparisons test.

BTK = target: T2, BTK (Homo sapiens, UniProt Q06187); test: BTK degradation and anti-tumor activity in preclinical models; format: in vivo
T2 construct: host or cells: preclinical models (not described)
T2 sequence (Q06187 whole entry, species assumed): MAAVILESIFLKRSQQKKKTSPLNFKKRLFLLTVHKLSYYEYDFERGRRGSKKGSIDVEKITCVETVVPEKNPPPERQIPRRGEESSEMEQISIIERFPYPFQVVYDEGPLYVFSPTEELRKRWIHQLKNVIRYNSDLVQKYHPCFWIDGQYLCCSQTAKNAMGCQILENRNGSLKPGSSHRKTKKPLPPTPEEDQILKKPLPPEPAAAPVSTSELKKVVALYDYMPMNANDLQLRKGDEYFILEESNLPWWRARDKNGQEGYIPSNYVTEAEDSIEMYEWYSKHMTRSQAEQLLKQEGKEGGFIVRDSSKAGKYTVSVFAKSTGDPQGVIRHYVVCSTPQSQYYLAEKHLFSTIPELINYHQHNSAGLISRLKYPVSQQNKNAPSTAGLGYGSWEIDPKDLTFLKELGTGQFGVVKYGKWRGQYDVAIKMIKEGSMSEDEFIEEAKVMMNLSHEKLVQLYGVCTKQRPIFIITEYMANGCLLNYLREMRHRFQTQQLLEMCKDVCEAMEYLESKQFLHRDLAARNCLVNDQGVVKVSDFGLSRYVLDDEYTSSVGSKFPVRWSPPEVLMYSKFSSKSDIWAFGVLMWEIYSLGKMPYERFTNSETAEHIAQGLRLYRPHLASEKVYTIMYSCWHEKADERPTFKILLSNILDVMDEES

Ikaros = target: T3, Ikaros (Homo sapiens, UniProt Q13422+Q96SW2); test: Ikaros degradation in patient PBMCs, Western blot (Jess Simple Western); format: in vivo; details: Cycle 1 Day 8
T3 construct: from tissue; host or cells: patient PBMCs, lysed after in vivo dosing
T3 sequence (Q13422 whole entry): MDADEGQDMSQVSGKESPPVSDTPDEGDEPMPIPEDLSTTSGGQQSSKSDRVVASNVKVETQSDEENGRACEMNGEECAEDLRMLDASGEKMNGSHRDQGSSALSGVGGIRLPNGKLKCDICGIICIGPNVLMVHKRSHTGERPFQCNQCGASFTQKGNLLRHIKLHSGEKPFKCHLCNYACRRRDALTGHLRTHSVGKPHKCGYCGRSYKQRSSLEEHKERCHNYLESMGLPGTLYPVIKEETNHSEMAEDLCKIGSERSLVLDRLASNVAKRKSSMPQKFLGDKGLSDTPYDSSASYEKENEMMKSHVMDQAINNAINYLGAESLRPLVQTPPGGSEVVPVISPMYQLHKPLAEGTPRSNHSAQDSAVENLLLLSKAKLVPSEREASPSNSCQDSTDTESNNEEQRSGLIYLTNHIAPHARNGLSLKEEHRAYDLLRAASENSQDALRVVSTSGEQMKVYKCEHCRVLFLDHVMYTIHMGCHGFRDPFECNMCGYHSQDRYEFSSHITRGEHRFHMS
T3 sequence (Q96SW2 whole entry): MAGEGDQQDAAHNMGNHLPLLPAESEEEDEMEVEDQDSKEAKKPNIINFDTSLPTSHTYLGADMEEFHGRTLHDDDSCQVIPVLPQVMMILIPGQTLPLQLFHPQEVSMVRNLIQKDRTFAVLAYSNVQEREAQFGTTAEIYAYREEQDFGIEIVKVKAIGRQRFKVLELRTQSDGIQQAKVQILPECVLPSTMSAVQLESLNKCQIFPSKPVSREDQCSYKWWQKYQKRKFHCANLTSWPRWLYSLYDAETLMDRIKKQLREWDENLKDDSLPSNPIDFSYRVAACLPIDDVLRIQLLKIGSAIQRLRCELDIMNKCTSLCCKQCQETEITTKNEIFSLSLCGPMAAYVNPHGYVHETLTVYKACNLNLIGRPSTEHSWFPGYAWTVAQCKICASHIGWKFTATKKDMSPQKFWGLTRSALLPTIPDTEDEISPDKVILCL
T3 sequence (Q16531 whole entry partner): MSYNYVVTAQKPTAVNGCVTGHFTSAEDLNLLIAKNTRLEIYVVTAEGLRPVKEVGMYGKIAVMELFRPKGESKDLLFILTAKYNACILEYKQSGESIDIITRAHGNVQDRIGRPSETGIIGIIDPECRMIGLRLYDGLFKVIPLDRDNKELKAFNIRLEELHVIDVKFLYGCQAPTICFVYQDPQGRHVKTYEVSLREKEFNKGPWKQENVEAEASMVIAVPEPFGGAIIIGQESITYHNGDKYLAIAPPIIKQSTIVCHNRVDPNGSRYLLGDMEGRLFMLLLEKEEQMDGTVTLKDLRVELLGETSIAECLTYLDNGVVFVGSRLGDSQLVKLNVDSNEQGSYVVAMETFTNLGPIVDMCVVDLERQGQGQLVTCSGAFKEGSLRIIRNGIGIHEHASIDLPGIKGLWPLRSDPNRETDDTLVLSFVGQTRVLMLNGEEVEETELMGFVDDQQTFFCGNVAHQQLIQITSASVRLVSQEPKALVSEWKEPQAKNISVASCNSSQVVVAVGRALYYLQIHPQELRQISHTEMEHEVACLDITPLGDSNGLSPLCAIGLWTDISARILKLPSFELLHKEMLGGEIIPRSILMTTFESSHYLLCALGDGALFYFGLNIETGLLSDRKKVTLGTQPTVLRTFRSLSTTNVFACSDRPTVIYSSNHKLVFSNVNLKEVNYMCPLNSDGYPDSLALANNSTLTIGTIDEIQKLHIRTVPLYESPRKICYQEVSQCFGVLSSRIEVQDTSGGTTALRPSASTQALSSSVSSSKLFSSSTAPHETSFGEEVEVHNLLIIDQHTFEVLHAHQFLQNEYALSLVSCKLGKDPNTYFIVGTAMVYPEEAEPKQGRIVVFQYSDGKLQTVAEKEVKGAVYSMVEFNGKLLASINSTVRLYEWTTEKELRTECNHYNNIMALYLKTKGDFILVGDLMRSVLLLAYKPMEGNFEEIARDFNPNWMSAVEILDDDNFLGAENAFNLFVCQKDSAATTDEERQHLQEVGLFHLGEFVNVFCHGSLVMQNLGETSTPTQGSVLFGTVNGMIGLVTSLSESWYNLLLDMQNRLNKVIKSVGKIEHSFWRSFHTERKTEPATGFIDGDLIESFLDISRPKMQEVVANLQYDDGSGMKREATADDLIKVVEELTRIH
Description: Frozen patient PBMCs collected at baseline and at Cycle 1 Day 8 were processed into protein lysate and degradation of cereblon neo-substrate Ikaros was determined using Western blot via Jess™ Simple Western automated system. […] Patients receiving 300 mg Compound 5, 75.2-95.7% Ikaros degradation was detected.
Frozen PBMCs from patients were prepared and Ikaros protein levels were assessed using Western blot via Jess™ Simple Western automated system.
FIG. 7A, densitometric analysis of Ikaros degradation in all patients were obtained after normalization to β-actin and % Ikaros degradation was calculated relative to Baseline values from each patient.
For Ikaros degradation assessment, patient PBMCs were lysed in lysis buffer RIPA buffer (Fisher, PI89901), complete Mini EDTA-free protease inhibitor (Sigma 11836170001), Protease Inhibitor Cocktail (Sigma, P2714) and Phosphatase Inhibitor Cocktail 2 and 3 (Sigma, P5726 and P0044) and stored overnight at −80° C. Cells were then thawed and centrifuged for 5 min at 8000×g and lysate supernatants were transferred to a fresh tube. Protein levels were determined by BCA Assay performed according to manufacturer's protocol (EMD Millipore, cat. no. 71285-3). A total of 3 μg protein was loaded and 1:50 dilution of primary anti-Ikaros (Cell Signaling Technology, cat. 14859) and 1:50 anti-β-Actin (Cell Signaling Technology, cat. 8457) was used. […]

T1 sequence (Q9UKT9 whole entry): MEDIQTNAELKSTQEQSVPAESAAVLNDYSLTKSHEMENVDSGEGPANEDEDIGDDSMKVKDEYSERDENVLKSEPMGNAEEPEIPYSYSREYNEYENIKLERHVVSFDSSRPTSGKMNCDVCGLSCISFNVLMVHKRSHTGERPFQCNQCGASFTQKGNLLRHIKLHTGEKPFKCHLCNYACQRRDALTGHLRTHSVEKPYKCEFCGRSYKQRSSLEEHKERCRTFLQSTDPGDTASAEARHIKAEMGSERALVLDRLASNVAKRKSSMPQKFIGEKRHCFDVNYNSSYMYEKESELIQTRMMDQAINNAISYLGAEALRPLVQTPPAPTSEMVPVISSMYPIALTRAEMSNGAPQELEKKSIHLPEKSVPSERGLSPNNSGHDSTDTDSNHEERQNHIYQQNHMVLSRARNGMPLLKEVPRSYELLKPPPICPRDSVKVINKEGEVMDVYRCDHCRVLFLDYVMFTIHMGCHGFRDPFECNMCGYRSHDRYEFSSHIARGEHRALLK
T1 sequence (Q96SW2 whole entry): as the sequence (Q96SW2 whole entry) above
T1 sequence (Q16531 whole entry partner): as the sequence (Q16531 whole entry partner) above

DC50 (Aiolos) [nM] | Dmax (Aiolos) [%] | BTK degradation (BTK) [%] | Ikaros degradation (Ikaros; patients receiving 300 mg) | Ikaros degradation (Ikaros; patients receiving either 100 or 200 mg) | SMILES | body weight loss (arthritis)
5.2 | 94.7 | – | – | – | NC(=O)c1ncc(N2CCCCC2)nc1Nc1ccc2c(c1)CCN(C1CN(c3ccc4c(c3)C(=O)N(C3CCC(=O)NC3=O)C4=O)C1)C2 (racemic) [Compound 2, rac-3-{[2-(1-{2-[(3R)-2,6-dioxopiperidin-3-yl]-1,3-dioxoisoindol-5-yl}azetidin-3-yl)-3,4-dihydro-1H-isoquinolin-6-yl]amino}-5-(piperidin-1-yl)pyrazine-2-carboxamide] | –
27 | 77.4 | – | – | – | NC(=O)c1ncc(N2CCCCC2)nc1Nc1ccc2c(c1)CCN(C[C@H]1CCN(c3ccc4c(c3)C(=O)N(C3CCC(=O)NC3=O)C4=O)C1)C2 (stereo partly drawn) [Compound 1] | –
93 | 84.9 | – | – | – | CN1CCN([C@@H]2CCCN(c3cnc(C(N)=O)c(Nc4ccc(C5CCN(C[C@H]6CC[C@H](Nc7cccc8c7C(=O)N(C7CCC(=O)NC7=O)C8=O)CC6)CC5)cc4)n3)C2)C1=O (stereo partly drawn) [Compound 3] | –
8 | 87 | – | – | – | CN1CCN([C@@H]2CCCN(c3cnc(C(N)=O)c(Nc4ccc(C5CCN(CCCNc6cccc7c6C(=O)N(C6CCC(=O)NC6=O)C7=O)CC5)cc4)n3)C2)C1=O (stereo partly drawn) [Compound 4] | –
22 | 89.1 | ≥ 80 | 75.2-95.7% | 26.1-60.5% | NC(=O)c1ncc(N2CCCCC2)nc1Nc1ccc(C2CCN(C[C@@H]3CCN(c4ccc5c(c4)C(=O)N(C4CCC(=O)NC4=O)C5=O)C3)CC2)cc1 (stereo partly drawn) [Compound 5] | minimal body weight loss
23 | 70.8 | – | – | – | CN1CCN([C@H]2CCCN(c3cnc(C(N)=O)c(Nc4cnn(C5CCN(CC6CN(c7ccc8c(c7)C(=O)N(C7CCC(=O)NC7=O)C8=O)C6)CC5)c4)n3)C2)C1=O (stereo partly drawn) [Compound 6] | –
4 | 98.2 | – | – | – | CN1CCN([C@H]2CCCN(c3cnc(C(N)=O)c(Nc4ccc5c(c4)CCN(CC4CN(c6ccc7c(c6)C(=O)N(C6CCC(=O)NC6=O)C7=O)C4)C5)n3)C2)C1=O (stereo partly drawn) [Compound 7] | –
1 | 98.4 | – | – | – | CN1CCN([C@@H]2CCCN(c3cnc(C(N)=O)c(Nc4ccc5c(c4)CCN(C4CN(c6ccc7c(c6)C(=O)N(C6CCC(=O)NC6=O)C7=O)C4)C5)n3)C2)C1=O (stereo partly drawn) [Compound 8] | –
12 | 86.5 | – | – | – | CN1CCN([C@@H]2CCCN(c3cnc(C(N)=O)c(Nc4ccc5c(c4)CCN(CC4CCN(c6ccc7c(c6)C(=O)N(C6CCC(=O)NC6=O)C7=O)CC4)C5)n3)C2)C1=O (stereo partly drawn) [Compound 9] | –
9 | 83.1 | – | – | – | CN1CCN([C@@H]2CCCN(c3cnc(C(N)=O)c(Nc4ccc(N5CC6(C5)CN(c5ccc7c(c5)C(=O)N(C5CCC(=O)NC5=O)C7=O)C6)cc4)n3)C2)C1=O (stereo partly drawn) [Compound 10] | –
20 | 78.7 | – | – | – | CN1CCN([C@@H]2CCCN(c3cnc(C(N)=O)c(Nc4ccc(C5CN(C6CCN(c7ccc8c(c7)C(=O)N(C7CCC(=O)NC7=O)C8=O)CC6)C5)cc4)n3)C2)C1=O (stereo partly drawn) [Compound 11] | –
7 | 65.1 | – | – | – | CN1CCN([C@@H]2CCCN(c3cnc(C(N)=O)c(Nc4ccc(N5CCN(C[C@@H]6[C@H]7CN(c8ccc9c(c8)C(=O)N(C8CCC(=O)NC8=O)C9=O)C[C@@H]67)CC5)cc4)n3)C2)C1=O (stereo partly drawn) [Compound 12] | –
33 | 73.9 | – | – | – | CN1CCN([C@@H]2CCCN(c3cnc(C(N)=O)c(Nc4ccc(C5CCN(C[C@H]6CCN(c7ccc8c(c7)C(=O)N(C7CCC(=O)NC7=O)C8=O)C6)CC5)cc4)n3)C2)C1=O (stereo partly drawn) [Compound 13] | –
11 | 74 | – | – | – | CN1CCN([C@@H]2CCCN(c3cnc(C(N)=O)c(Nc4ccc(C5CCN(CC6CCN(c7ccc8c(c7)C(=O)N(C7CCC(=O)NC7=O)C8=O)CC6)CC5)cc4)n3)C2)C1=O (stereo partly drawn) [Compound 14] | –
17 | 74.7 | – | – | – | CN1CCN([C@@H]2CCCN(c3cnc(C(N)=O)c(Nc4ccc(C5CCN(C6CN(c7ccc8c(c7)C(=O)N(C7CCC(=O)NC7=O)C8=O)C6)CC5)cc4)n3)C2)C1=O (stereo partly drawn) [Compound 15] | –
24 | 95.7 | – | – | – | CN1CCN([C@@H]2CCCN(c3cnc(C(N)=O)c(Nc4ccc(OCCCNc5ccc6c(c5)C(=O)N(C5CCC(=O)NC5=O)C6=O)cc4)n3)C2)C1=O (stereo partly drawn) [Compound 16] | –
560 | 51.9 | – | – | – | CN1CCN([C@@H]2CCCN(c3cnc(C(N)=O)c(Nc4ccc(C5(C)CCN(C(=O)CCOCCC(=O)Nc6cccc7c6CN(C6CCC(=O)NC6=O)C7=O)CC5)cc4)n3)C2)C1=O (stereo partly drawn) [Compound 17] | –
9 | 81.6 | – | – | – | CN1CCN([C@@H]2CCCN(c3cnc(C(N)=O)c(Nc4ccc(N5CCN(CCCCc6cccc7c6CN(C6CCC(=O)NC6=O)C7=O)CC5)cc4)n3)C2)C1=O (stereo partly drawn) [Compound 18] | –
1 | 98.6 | – | – | – | CN1CCN([C@@H]2CCCN(c3cnc(C(N)=O)c(Nc4ccc(C5CCN(C(=O)CCOCCNc6cccc7c6C(=O)N(C6CCC(=O)NC6=O)C7=O)CC5)cc4)n3)C2)C1=O (stereo partly drawn) [Compound 19] | –
